Where a name gives a salt, the structure may show the parent alone.
Assays:
[1] = biological target: T1, human NCX1 (Homo sapiens, UniProt P32418); assay: NCX1 inhibition, reverse mode (Ca2+ influx into cells), FLIPR Fluo-4 assay; format: cell-based; conditions: inhibition of NCX1 in reverse mode (Ca2+ influx into cells); read-out: NCX1rv IC50
T1 construct: expressed in transfected cells
In short: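 CHO cells stably expressing human NCX1 were loaded with 2 µM Fluo-4 AM for 80 min at room temperature, then preincubated with compound for 45 min at 16 °C in pH 7.4 HEPES buffer (3.5 mM CaCl2, 2.5 mM probenecid). Reverse-mode Ca2+ influx was triggered by 20 µM final gramicidin and read at 520 nm on FLIPR. IC50 came from % inhibition of max−min fluorescence.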

[2] = biological target: T1, human NCX1; assay: NCX1 inhibition, forward mode (Ca2+ efflux out of cells), FLIPR calcium assay; format: cell-based; conditions: for IC50: CHO cells stably expressing human NCX1, read-out: NCX1fw IC50; for inhibition at 10 µM: CHO cells stably expressing human NCX1, read-out: Inhibition in % at 10 μM, IC50 value not determined
Excerpt: The sodium/calcium exchanger NCX1 can transport calcium ions and sodium ions through the cell membrane. The transport is an exchange of Ca^2+ and Na^+ in two directions depending on membrane potential and ion gradients. At the first direction, named “forward mode” or “calcium export mode”, Ca^2+ is transported out of the cell and Na^+ is transported into the cell. At the other direction, named “reverse mode” or “calcium import mode”, the transport directions are vice versa. The effect of the compounds of the invention on NCX1 was determined in CHO cells stably expressing human NCX1 (gene symbol SLC8A1; cf. WO 2009/115238). The assay is based on the monitoring of intracellular Ca^2+ concentrations using a calcium-sensitive fluorescence dye which is detected by means of a FLIPR device (Fluorimetric Imaging Plate Reader, Molecular Devices).
The assay is based on the monitoring of intracellular Ca^2+ concentrations using the PBX Calcium Assay Kit from BD (Becton, Dickinson and Company) with calcium indicator dye 51-9000177BKa (BD, 640177). CHO cells expressing NCX1 were loaded with the dye, and after a preincubation period with the test compound, Ionomycin (Calbiochem, 407950) was added. Ionomycin is an ionophor for Ca^2+ ions mediating an increase of intracellular Ca^2+ ions. Consequently, intracellular Ca^2+ ions are exchanged against extracellular Na^+ ions (Ca^2+ efflux, forward mode). The decrease of intracellular Ca^2+ ions was detected by measuring the fluorescence of the calcium indicator dye at a wavelength of 520 nm by a FLIPR device.
Briefly, similarly as for the reverse mode, for the forward mode transport assay 18000 cells per well were seeded into a 96 well microplate (Corning COSTAR 3904) and incubated overnight in culture medium (cf. above). A total volume of 100 μl medium per well was used. For the preparation of the FLIPR assay, the culture medium was removed from the plates and 100 μl of assay buffer (133.8 mM NaCl (Sigma, S5886); 4.7 mM KCl (Sigma, P3911); 1.25 mM MgCl2 (Merck, 1.05833.0250); 3.5 mM CaCl2(Merck, 1.02083.0250); 5 mM glucose (Sigma, G7021); 10 mM Hepes (Sigma, H4034); pH 7.4)) were added to each well in a washing step. Assay buffer was removed, and 100 μl of a solution of the test compound in assay buffer in different concentrations were added into the wells. Further, 100 μl of dye solution (0.09% (v/v) calcium indicator dye, 9.1% (v/v) signal enhancer (from PBX Calcium Assay Kit); in assay buffer) were added into each well. The plates were incubated in the dark at room temperature for 60 min. Meanwhile a 10 μM solution of Ionomycin in assay buffer (additionally containing 0.05% fetal calf serum (cf. above); 4° C.) was prepared and stored in the wells of a 96 well microplate (96 well microplate, polypropylene, U-shape (Greiner Bio-One, 650201)). The fluorescence monitoring was performed at 60 measuring points with measurement intervals of 2 sec. After the fifth measuring point, 50 μl of the Ionomycin solution were added to each well of the assay plate to give a final Ionomycin concentration of 2 μM. For the determination of the IC50 values the minimal fluorescence value was subtracted from the maximal fluorescence value for the fifteenth to fifty-fifth measuring points. The calculation of the IC50 values via the percentage inhibitions of Ca^2+ efflux out of cells (forward mode) effected by the test compound was performed in Biost@t Speed 2.0. “NCX1fw IC50” in Table 2 means the IC50 value for inhibition of NCX1 in forward mode (in μM (micromol/liter)).

| Compound | IC50 [1] [nM] | IC50 [2] [nM] | inhibition at 10 µM [2] [%] |
| --- | --- | --- | --- |
| O=C(NCc1ccncn1)c1cnc(Oc2ccc3c(c2)CCC(c2ccccc2)O3)s1 (stereo not shown) [Example 32] | 600 | – | 27 |
| O=C(NCc1ccno1)c1cnc(Oc2ccc3c(c2)CCC(c2cccnc2)O3)s1 (stereo not shown) [Example 58, hydrochloride] | 600 | 8300 | – |
| Cc1nn(C)c(C)c1S(=O)(=O)NCc1cnc(Oc2ccc3c(c2)CCC(c2ccccc2)O3)s1 (stereo not shown) [Example 125, 1,3,5-Trimethyl-1H-pyrazole-4-sulfonic acid [2-(2-phenyl-chroman-6-yloxy)-thiazol-5-ylmethyl]-amide] | 9200 | – | 20 |
| COC(=O)C(C)(C)NC(=O)c1cnc(Oc2ccc3c(c2)CC[C@@H](c2ccccc2)O3)s1 [Example 182] | 600 | – | 8 |
| CCOC(=O)[C@@H]1CCCC[C@@H]1NC(=O)c1cnc(Oc2ccc3c(c2)CC[C@@H](c2ccccc2)O3)s1 [Example 189] | 600 | – | 17 |
| O=C(c1cnc(Oc2ccc3c(c2)CC[C@@H](c2ccccc2)O3)s1)N1CCOCC1 [Example 214] | 500 | 4500 | – |
| Cc1ccccc1C1CCc2cc(Oc3ncc(C(=O)NCCN4CCNC4=O)s3)ccc2O1 (stereo not shown) [Example 216, 2-(2-o-Tolyl-chroman-6-yloxy)-thiazole-5-carboxylic acid [2-(2-oxo-imidazolidin-1-yl)-ethyl]-amide] | 300 | 1900 | – |
| O=C(O)C1CN(C(=O)c2cnc(Oc3ccc4c(c3)CC[C@@H](c3ccccc3)O4)s2)CC1C(F)(F)F (stereo partly shown) [Example 243] | 700 | – | 19 |
| O=C(NC1C2CNCC21)c1cnc(Oc2ccc3c(c2)CC[C@@H](c2ccccc2)O3)s1 (stereo partly shown) [Example 255] | 300 | 600 | – |
| COC(=O)[C@@H](C)NC(=O)c1cnc(Oc2ccc3c(c2)CCC(c2cccnc2)O3)s1 (stereo partly shown) [Example 275] | 3100 | 9900 | – |
| Cc1ccc(F)cc1C1CCc2cc(Oc3ncc(C(=O)NCc4ccno4)s3)ccc2O1 (stereo not shown) [compound 344] | 800 | – | – |
| Cc1ccc(F)cc1C1CCc2cc(Oc3ncc(C(=O)N4CC[C@@H](O)C4)s3)ccc2O1 (stereo partly shown) [compound 356] | 540 | – | – |
| Cc1cc2c(cc1Oc1ncc(C(=O)NCCO)s1)CCC(c1ccccc1C)O2 (stereo not shown) [compound 357] | 600 | – | – |
| Cc1cc2c(cc1Oc1ncc(C(=O)NCc3ccno3)s1)CCC(c1ccccc1C)O2 (stereo not shown) [compound 358] | 830 | – | – |
| CCn1nccc1CNC(=O)c1cnc(Oc2cc3c(cc2C)OC(c2ccccc2C)CC3)s1 (stereo not shown) [compound 359] | 1500 | – | – |
| COc1cccc(C2CCc3cc(Oc4ncc(C(=O)NCCO)s4)ccc3O2)c1F (stereo not shown) [compound 360] | 1800 | – | – |
| COc1cccc(C2CCc3cc(Oc4ncc(C(=O)NCc5ccno5)s4)ccc3O2)c1F (stereo not shown) [compound 361] | 9600 | – | – |
| CCn1nccc1CNC(=O)c1cnc(Oc2ccc3c(c2)CCC(c2cccc(OC)c2F)O3)s1 (stereo not shown) [compound 362] | 1500 | – | – |
| CC1Cc2cc(Oc3ncc(C(=O)NCc4ccno4)s3)ccc2OC1c1ccccc1 (stereo not shown) [compound 363] | 1900 | – | – |
| CC1Cc2cc(Oc3ncc(C(=O)NCCO)s3)ccc2OC1c1ccccc1 (stereo not shown) [compound 364] | 960 | – | – |
| CCn1nccc1CNC(=O)c1cnc(Oc2ccc3c(c2)CCC(c2cccc(F)c2OC)O3)s1 (stereo not shown) [compound 365] | 550 | – | – |

Other lines, results leading:

| IC50 [1] [nM] | IC50 [2] [nM] | inhibition at 10 µM [2] [%] | Compound |
| --- | --- | --- | --- |
| 300 | 1900 | – | O=C(NCc1nnc2n1CCC2)c1cnc(Oc2ccc3c(c2)CCC(c2ccccc2)O3)s1 (stereo not shown) [Example 2, 2-(2-Phenyl-chroman-6-yloxy)-thiazole-5-carboxylic acid (6,7-dihydro-5H-pyrrolo[2,1-c][1,2,4]triazol-3-ylmethyl)-amide] |
| 300 | 900 | – | CC(NC(=O)c1cnc(Oc2ccc3c(c2)CCC(c2cccc(F)c2)O3)s1)c1ccncc1 (stereo not shown) [Example 13, hydrochloride] |
| 300 | 2200 | – | Cc1c(CNC(=O)c2cnc(Oc3ccc4c(c3)CCC(c3ccccc3)O4)s2)cnn1C (stereo not shown) [Example 14, 2-(2-Phenyl-chroman-6-yloxy)-thiazole-5-carboxylic acid (1,5-dimethyl-1H-pyrazol-4-ylmethyl)-amide] |
| 200 | 600 | – | O=C(NCc1ccncc1)c1cnc(Oc2ccc3c(c2)CCC(c2cccc(F)c2)O3)s1 (stereo not shown) [Example 18, hydrochloride] |
| 200 | 1200 | – | O=C(NCc1nnc2n1CCC2)c1cnc(Oc2ccc3c(c2)CCC(c2cccc(F)c2)O3)s1 (stereo not shown) [Example 20, hydrochloride] |
| 300 | 1200 | – | O=C(NCc1ccnc(Cl)c1)c1cnc(Oc2ccc3c(c2)CCC(c2ccccc2)O3)s1 (stereo not shown) [Example 39, 2-(2-Phenyl-chroman-6-yloxy)-thiazole-5-carboxylic acid (2-chloro-pyridin-4-ylmethyl)-amide] |
| 100 | 200 | – | Cc1nc(Oc2ccc3c(c2)CCC(c2ccccc2)O3)sc1C(=O)NCc1ccncc1 (stereo not shown) [Example 59, hydrochloride] |
| 200 | 3100 | – | c1ccc(C2CCc3cc(Oc4ncc(CNC5CC5)s4)ccc3O2)cc1 (stereo not shown) [Example 103] |
| 200 | 2600 | – | c1ccc(C2CCc3cc(Oc4ncc(CNCc5ccncc5)s4)ccc3O2)cc1 (stereo not shown) [Example 134, [2-(2-Phenyl-chroman-6-yloxy)-thiazol-5-ylmethyl]-pyridin-4-ylmethyl-amine] |
| 300 | – | 46 | c1ccc(C2CCc3cc(Oc4ncc(CNCc5cn6ccsc6n5)s4)ccc3O2)cc1 (stereo not shown) [Example 158] |
| 300 | 800 | – | O=C(NCc1ccncc1)c1sc(Oc2ccc3c(c2)CCC(c2ccccc2)O3)nc1Cl (stereo not shown) [Example 177, 4-Chloro-2-(2-phenyl-chroman-6-yloxy)-thiazole-5-carboxylic acid (pyridin-4-ylmethyl)-amide hydrochloride] |
| 300 | 1600 | – | O=C(NC(CCO)C1CC1)c1cnc(Oc2ccc3c(c2)CC[C@@H](c2ccccc2)O3)s1 (stereo partly shown) [Example 206] |
| 170 | – | – | O=C(CN1CCCC1)NCc1cnc(Oc2ccc3c(c2)CCC(c2ccccc2)O3)s1 (stereo not shown) [compound 346, hydrochloride] |
| 200 | – | – | Cc1ccc(F)cc1C1CCc2cc(Oc3ncc(C(=O)NCCN4CCNC4=O)s3)ccc2O1 (stereo not shown) [compound 349] |
| 120 | – | – | O=C(NCCO)c1csc(Oc2ccc3c(c2)CC[C@@H](c2ccccc2)O3)n1 [compound 350] |
| 110 | – | – | CCCNC(=O)c1csc(Oc2ccc3c(c2)CC[C@@H](c2ccccc2)O3)n1 [compound 351] |
| 92 | – | – | O=C(NCc1ccno1)c1csc(Oc2ccc3c(c2)CC[C@@H](c2ccccc2)O3)n1 [compound 353] |
| 160 | – | – | CC(O)CNC(=O)c1cnc(Oc2ccc3c(c2)CCC(c2ccccc2)O3)s1 (stereo not shown) [compound 354] |
| 250 | – | – | O=C(NC1CCCC1O)c1cnc(Oc2ccc3c(c2)CCC(c2ccccc2)O3)s1 (stereo not shown) [compound 355] |
| 180 | – | – | COc1c(F)cccc1C1CCc2cc(Oc3ncc(C(=O)NCc4ccno4)s3)ccc2O1 (stereo not shown) [compound 366] |
| 270 | – | – | COc1c(F)cccc1C1CCc2cc(Oc3ncc(C(=O)NCCO)s3)ccc2O1 (stereo not shown) [compound 367] |

Reference: patent US20140243292A1, “SUBSITUTED 2-(CHROMAN-6-YLOXYL)-THIAZOLES AND THEIR USE AS PHARMACEUTICALS” (Sanofi, priority 2011, published 2014)
